From US9012443B2 (Amgen Inc., priority 2011, dated 2015)

What was measured:
Nav 1.7 = Nav 1.7 (Homo sapiens (Human), UniProt Q15858); experiment: Nav 1.7 in vitro PX assay (PatchXpress whole cell voltage clamp); assay type: cell-based; conditions: 293 cells, human Nav1.7, partially inactivated state; read-out: Nav1.7 PX IC50 IP
In short: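 Partially inactivated channel state (holding potential for 20–50% inactivation) probed in human Nav1.7-transfected 293 cells by automated patch clamp, test pulse −10 mV for 20 msec.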

Nav 1.5 = Nav 1.5 (Homo sapiens (Human), UniProt Q14524); experiment: Nav 1.5 in vitro PX assay (PatchXpress whole cell voltage clamp); assay type: cell-based; conditions: 293 cells stably transfected with Nav 1.5; second part of table; read-out: Nav1.5 PX IC50
Nav 1.5, sequence (Q14524 whole entry): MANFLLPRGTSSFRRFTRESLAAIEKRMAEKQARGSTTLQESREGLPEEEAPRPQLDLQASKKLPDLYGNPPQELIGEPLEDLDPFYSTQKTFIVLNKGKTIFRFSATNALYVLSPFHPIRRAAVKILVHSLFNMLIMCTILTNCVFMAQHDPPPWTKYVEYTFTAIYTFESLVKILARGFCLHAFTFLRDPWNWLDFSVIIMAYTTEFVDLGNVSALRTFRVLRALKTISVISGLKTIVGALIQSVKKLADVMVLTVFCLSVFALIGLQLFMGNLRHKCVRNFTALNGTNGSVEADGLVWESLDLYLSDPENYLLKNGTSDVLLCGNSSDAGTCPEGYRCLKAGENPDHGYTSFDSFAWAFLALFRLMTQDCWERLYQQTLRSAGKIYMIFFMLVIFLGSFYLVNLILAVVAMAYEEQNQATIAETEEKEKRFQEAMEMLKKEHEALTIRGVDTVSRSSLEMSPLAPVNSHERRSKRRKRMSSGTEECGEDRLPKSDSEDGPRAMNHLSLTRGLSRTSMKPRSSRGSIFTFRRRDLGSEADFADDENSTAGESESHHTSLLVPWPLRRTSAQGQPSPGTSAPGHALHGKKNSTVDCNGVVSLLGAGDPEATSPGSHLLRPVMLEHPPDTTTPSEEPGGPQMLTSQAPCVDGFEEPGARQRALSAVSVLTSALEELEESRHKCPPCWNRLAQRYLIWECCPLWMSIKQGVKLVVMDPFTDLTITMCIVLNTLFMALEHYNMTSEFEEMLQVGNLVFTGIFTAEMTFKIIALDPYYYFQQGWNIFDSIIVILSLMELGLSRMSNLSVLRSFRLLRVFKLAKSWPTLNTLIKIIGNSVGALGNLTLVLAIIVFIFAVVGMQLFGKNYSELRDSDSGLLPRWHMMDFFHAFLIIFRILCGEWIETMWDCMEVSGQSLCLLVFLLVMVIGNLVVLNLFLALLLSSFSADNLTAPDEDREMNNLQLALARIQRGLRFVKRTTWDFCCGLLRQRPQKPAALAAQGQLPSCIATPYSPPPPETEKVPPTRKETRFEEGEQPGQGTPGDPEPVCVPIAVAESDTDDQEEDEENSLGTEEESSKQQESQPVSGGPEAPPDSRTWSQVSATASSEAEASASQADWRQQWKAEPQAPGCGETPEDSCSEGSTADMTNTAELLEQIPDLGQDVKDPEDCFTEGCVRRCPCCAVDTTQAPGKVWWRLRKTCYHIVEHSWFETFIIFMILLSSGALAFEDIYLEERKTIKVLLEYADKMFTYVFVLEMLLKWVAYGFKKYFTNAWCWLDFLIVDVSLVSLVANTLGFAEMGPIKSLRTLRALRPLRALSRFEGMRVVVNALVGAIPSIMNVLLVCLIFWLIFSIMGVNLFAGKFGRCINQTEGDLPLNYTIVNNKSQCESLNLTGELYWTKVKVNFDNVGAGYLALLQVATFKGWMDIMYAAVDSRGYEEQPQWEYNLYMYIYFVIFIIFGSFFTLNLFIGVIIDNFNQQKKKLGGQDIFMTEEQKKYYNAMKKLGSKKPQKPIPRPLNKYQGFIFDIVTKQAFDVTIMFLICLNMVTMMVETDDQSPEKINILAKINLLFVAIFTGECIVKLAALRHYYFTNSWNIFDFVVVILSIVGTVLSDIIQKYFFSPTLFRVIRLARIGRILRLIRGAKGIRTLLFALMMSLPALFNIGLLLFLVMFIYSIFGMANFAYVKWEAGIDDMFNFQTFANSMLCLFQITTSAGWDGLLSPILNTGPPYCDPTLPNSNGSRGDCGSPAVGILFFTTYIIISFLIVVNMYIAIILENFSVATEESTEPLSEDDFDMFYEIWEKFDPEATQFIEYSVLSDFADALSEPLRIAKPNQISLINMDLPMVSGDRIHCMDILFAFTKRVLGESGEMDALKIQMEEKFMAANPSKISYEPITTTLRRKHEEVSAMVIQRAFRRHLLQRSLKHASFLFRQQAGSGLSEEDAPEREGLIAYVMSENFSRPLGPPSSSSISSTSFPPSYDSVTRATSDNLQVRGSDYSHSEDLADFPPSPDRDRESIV
Procedure: Nav 1.5 In Vitro PX Assay
293 cells stably transfected with Nav 1.5 were recorded in whole cell voltage clamp mode with the PatchXpress automated electrophysiology system according the manufacturer's specifications (Molecular Devices, LLC, Sunnyvale, Calif.). Cells were held at a holding potential of −50 mV to inactivate sodium channels. To elicit sodium currents the voltage was changed to −120 mV to recover a portion of the channels, followed by delivery of test pulses of 20 msec duration to 0 mV, at 0.1 Hz. A single concentration of test compound was applied to cells for a duration of 5 minutes. Peak sodium current was measured at the end of the compound addition period to determine percent inhibition. A minimum of two cells were tested per concentration. IC50 curves were fitted to percent inhibition as a function of concentration.

Nav 1.7, sequence (Q15858 whole entry): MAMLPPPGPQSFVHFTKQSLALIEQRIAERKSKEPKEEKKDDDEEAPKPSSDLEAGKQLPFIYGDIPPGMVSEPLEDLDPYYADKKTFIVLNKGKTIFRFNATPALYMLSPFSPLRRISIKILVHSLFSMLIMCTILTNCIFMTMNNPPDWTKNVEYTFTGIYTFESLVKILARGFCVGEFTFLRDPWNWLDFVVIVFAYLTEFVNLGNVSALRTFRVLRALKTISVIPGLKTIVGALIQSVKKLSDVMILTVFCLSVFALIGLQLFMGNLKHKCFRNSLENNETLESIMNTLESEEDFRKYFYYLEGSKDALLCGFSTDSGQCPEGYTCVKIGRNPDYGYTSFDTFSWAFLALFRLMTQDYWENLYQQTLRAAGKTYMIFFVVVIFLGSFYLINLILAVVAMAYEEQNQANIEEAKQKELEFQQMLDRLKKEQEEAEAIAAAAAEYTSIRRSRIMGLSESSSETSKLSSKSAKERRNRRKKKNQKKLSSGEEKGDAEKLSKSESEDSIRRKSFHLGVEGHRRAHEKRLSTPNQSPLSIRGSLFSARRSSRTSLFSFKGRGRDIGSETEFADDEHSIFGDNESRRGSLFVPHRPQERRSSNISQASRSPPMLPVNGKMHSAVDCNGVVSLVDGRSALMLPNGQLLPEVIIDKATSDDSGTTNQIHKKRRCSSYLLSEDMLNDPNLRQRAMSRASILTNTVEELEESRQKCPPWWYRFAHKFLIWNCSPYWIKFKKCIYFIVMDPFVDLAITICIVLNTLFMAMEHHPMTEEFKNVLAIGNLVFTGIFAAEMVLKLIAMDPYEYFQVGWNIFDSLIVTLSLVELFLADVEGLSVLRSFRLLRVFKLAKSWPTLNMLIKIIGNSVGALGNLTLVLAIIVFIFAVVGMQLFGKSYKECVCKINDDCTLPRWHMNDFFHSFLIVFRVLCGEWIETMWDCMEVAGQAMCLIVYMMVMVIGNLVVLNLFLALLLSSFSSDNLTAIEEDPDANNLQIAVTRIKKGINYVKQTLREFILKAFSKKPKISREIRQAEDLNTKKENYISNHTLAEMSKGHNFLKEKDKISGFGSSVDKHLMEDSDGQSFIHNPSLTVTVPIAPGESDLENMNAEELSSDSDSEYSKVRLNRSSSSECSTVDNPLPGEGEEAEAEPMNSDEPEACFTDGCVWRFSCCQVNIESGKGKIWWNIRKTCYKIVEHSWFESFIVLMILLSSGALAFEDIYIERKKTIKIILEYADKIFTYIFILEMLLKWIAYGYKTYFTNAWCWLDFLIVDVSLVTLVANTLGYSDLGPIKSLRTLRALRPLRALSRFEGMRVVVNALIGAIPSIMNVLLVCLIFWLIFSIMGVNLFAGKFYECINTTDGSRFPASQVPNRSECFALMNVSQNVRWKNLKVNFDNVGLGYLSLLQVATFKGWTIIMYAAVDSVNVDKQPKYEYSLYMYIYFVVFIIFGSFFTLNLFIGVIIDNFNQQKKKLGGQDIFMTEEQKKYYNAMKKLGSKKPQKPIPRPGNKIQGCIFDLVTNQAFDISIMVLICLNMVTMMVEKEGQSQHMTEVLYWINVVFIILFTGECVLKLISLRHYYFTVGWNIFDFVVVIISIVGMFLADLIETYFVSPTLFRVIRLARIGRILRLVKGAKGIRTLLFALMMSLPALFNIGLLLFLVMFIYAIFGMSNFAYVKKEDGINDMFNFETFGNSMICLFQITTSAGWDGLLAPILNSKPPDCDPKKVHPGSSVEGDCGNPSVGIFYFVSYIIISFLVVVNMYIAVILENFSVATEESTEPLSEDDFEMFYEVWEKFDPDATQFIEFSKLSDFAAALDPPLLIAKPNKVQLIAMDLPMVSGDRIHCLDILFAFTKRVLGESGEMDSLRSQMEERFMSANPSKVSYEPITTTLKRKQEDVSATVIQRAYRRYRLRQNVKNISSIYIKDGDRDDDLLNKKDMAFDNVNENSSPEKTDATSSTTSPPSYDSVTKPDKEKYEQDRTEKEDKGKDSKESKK

Structure (SMILES)	IC50 (Nav 1.7)	IC50 (Nav 1.5)
COc1cc(-c2ccc(F)c(Cl)c2)ccc1-c1nccc2cc(S(=O)(=O)Nc3ccncn3)ccc12 [Example 490, 1-(3′-CHLORO-4′-FLUORO-3-METHOXY-[1,1′-BIPHENYL]-4-YL)-N-(PYRIMIDIN-4-YL)ISOQUINOLINE-6-SULFONAMIDE]	62 nM	> 30000 nM
COc1cc(-c2cc(F)cc(F)c2)c(C#N)cc1-c1nccc2cc(S(=O)(=O)Nc3ccon3)ccc12 [Example 343, 1-(2-CYANO-3′,5′-DIFLUORO-5-METHOXY-[1,1′-BIPHENYL]-4-YL)-N-(ISOXAZOL-3-YL)ISOQUINOLINE-6-SULFONAMIDE]	145 nM	> 30000 nM
COc1cc(Cl)c(C#N)cc1-c1nccc2cc(S(=O)(=O)Nc3ncns3)ccc12 [Example 336, 1-(4-CHLORO-5-CYANO-2-METHOXYPHENYL)-N-(1,2,4-THIADIAZOL-5-YL)ISOQUINOLINE-6-SULFONAMIDE]	156 nM	> 30000 nM
COc1cc(-c2cccc(C(F)(F)F)c2)ccc1-c1nccc2cc(S(=O)(=O)Nc3ccncn3)ccc12 [Example 351, 1-(3-METHOXY-3′-(TRIFLUOROMETHYL)-[1,1′-BIPHENYL]-4-YL)-N-(PYRIMIDIN-4-YL)ISOQUINOLINE-6-SULFONAMIDE]	76 nM	26600 nM
COc1ccccc1-c1ncnc2cc(S(=O)(=O)Nc3nccs3)ccc12 [Example 272, 4-(2-METHOXYPHENYL)-N-(THIAZOL-2-YL)QUINAZOLINE-7-SULFONAMIDE]	460 nM	> 30000 nM
COc1cc(-c2ccc(F)cc2F)ccc1-c1nccc2cc(S(=O)(=O)Nc3ccncn3)ccc12 [Example 445, 1-(2′,4′-DIFLUORO-3-METHOXY-[1,1′-BIPHENYL]-4-YL)-N-(PYRIMIDIN-4-YL)ISOQUINOLINE-6-SULFONAMIDE]	218 nM	> 30000 nM
COc1cc(-c2cccc(F)c2)c(C#N)cc1-c1nccc2cc(S(=O)(=O)Nc3nncs3)ccc12 [Example 341, 1-(2-CYANO-3′-FLUORO-5-METHOXY-[1,1′-BIPHENYL]-4-YL)-N-(1,3,4-THIADIAZOL-2-YL)ISOQUINOLINE-6-SULFONAMIDE]	69 nM	> 30000 nM
COc1cc(-c2cccc(F)c2)c(Cl)cc1-c1ncnc2cc(S(=O)(=O)Nc3ccncn3)ccc12 [Example 523, 4-(2-CHLORO-3′-FLUORO-5-METHOXY-[1,1′-BIPHENYL]-4-YL)-N-(PYRIMIDIN-4-YL)QUINAZOLINE-7-SULFONAMIDE]	65 nM	6590 nM
COc1cc(Cl)c(Cl)cc1-c1nccc2cc(S(=O)(=O)Nc3nccs3)ccc12 [Example 177, 1-(4,5-DICHLORO-2-METHOXYPHENYL)-N-(THIAZOL-2-YL)ISOQUINOLINE-6-SULFONAMIDE]	500 nM	> 30000 nM
COc1cc(C(F)F)c(OC)cc1-c1nccc2cc(S(=O)(=O)Nc3nccs3)ccc12 [Example 452, 1-(4-(DIFLUOROMETHYL)-2,5-DIMETHOXYPHENYL)-N-(THIAZOL-2-YL)ISOQUINOLINE-6-SULFONAMIDE]	284 nM	> 30000 nM
Cc1cc(-c2cccc(F)c2)ccc1-c1nccc2cc(S(=O)(=O)Nc3ccncn3)ccc12 [Example 358, 1-(3′-FLUORO-3-METHYL-[1,1′-BIPHENYL]-4-YL)-N-(PYRIMIDIN-4-YL)ISOQUINOLINE-6-SULFONAMIDE]	394 nM	> 30000 nM
COc1cc(-c2cccc(F)c2)c(C#N)cc1-c1nccc2cc(S(=O)(=O)Nc3ccon3)ccc12 [Example 342, 1-(2-CYANO-3′-FLUORO-5-METHOXY-[1,1′-BIPHENYL]-4-YL)-N-(ISOXAZOL-3-YL)ISOQUINOLINE-6-SULFONAMIDE]	122 nM	> 30000 nM
COc1cc(-c2cccc(F)c2)c(F)cc1-c1nccc2cc(S(=O)(=O)Nc3nncs3)ccc12 [Example 366, 1-(2,3′-DIFLUORO-5-METHOXY-[1,1′-BIPHENYL]-4-YL)-N-(1,3,4-THIADIAZOL-2-YL)ISOQUINOLINE-6-SULFONAMIDE]	48 nM	> 30000 nM
COc1cc(-c2cc(F)cc(F)c2)ccc1-c1nccc2cc(S(=O)(=O)Nc3ccncn3)ccc12 [Example 449, 1-(3′,5′-DIFLUORO-3-METHOXY-[1,1′-BIPHENYL]-4-YL)-N-(PYRIMIDIN-4-YL)ISOQUINOLINE-6-SULFONAMIDE]	34 nM	> 30000 nM
COc1cc(Oc2cccc(F)c2)ccc1-c1nccc2cc(S(=O)(=O)Nc3ccncn3)ccc12 [Example 464, 1-(4-(3-FLUOROPHENOXY)-2-METHOXYPHENYL)-N-(PYRIMIDIN-4-YL)ISOQUINOLINE-6-SULFONAMIDE]	380 nM	> 30000 nM
COc1cc(-c2cccc(F)c2)c(C#N)cc1-c1nccc2cc(S(=O)(=O)Nc3ncns3)ccc12 [Example 340, 1-(2-CYANO-3′-FLUORO-5-METHOXY-[1,1′-BIPHENYL]-4-YL)-N-(1,2,4-THIADIAZOL-5-YL)ISOQUINOLINE-6-SULFONAMIDE]	56 nM	> 30000 nM

Structure (SMILES)	IC50 (Nav 1.7)	IC50 (Nav 1.5)
COc1cc(-c2cc(F)cc(F)c2)c(F)cc1-c1nccc2cc(S(=O)(=O)Nc3nncs3)ccc12 [Example 364, N-(1,3,4-THIADIAZOL-2-YL)-1-(2,3′,5′-TRIFLUORO-5-METHOXY-[1,1′-BIPHENYL]-4-YL)ISOQUINOLINE-6-SULFONAMIDE]	36 nM	> 30000 nM
COc1cc(C(F)F)ccc1-c1nc(C)nc2cc(S(=O)(=O)Nc3nccs3)ccc12 [Example 515, 4-(4-(difluoromethyl)-2-methoxyphenyl)-2-methyl-N-(thiazol-2-yl)quinazoline-7-sulfonamide]	478 nM	> 30000 nM
COc1cc(Cl)ccc1-c1nccc2cc(S(=O)(=O)Nc3ncns3)ccc12 [Example 368, 1-(4-CHLORO-2-METHOXYPHENYL)-N-(1,2,4-THIADIAZOL-5-YL)ISOQUINOLINE-6-SULFONAMIDE]	122 nM	> 30000 nM
COc1cc(-c2ccc(C)c(C)c2)ccc1-c1nccc2cc(S(=O)(=O)Nc3ccncn3)ccc12 [Example 469]	170 nM	> 30000 nM
COc1cc(-c2cccc(F)c2)c(Cl)cc1-c1nccc2cc(S(=O)(=O)Nc3ccon3)ccc12 [Example 335, 1-(2-CHLORO-3′-FLUORO-5-METHOXY-[1,1′-BIPHENYL]-4-YL)-N-(ISOXAZOL-3-YL)ISOQUINOLINE-6-SULFONAMIDE]	52 nM	> 30000 nM
COc1cc(-c2ccc(F)c(F)c2)ccc1-c1nccc2cc(S(=O)(=O)Nc3ccncn3)ccc12 [Example 448, 1-(3′,4′-DIFLUORO-3-METHOXY-[1,1′-BIPHENYL]-4-YL)-N-(PYRIMIDIN-4-YL)ISOQUINOLINE-6-SULFONAMIDE]	38 nM	> 30000 nM
COc1cc(CC(C)(C)C)ccc1-c1nccc2cc(S(=O)(=O)Nc3ccncn3)ccc12 [Example 360, 1-(2-METHOXY-4-NEOPENTYLPHENYL)-N-(PYRIMIDIN-4-YL)ISOQUINOLINE-6-SULFONAMIDE]	513 nM	> 30000 nM
COc1ccc(Cl)cc1-c1n[nH]c(=O)c2cc(S(=O)(=O)Nc3ncc(F)s3)ccc12 [Example 507, 1-(5-CHLORO-2-METHOXYPHENYL)-N-(5-FLUOROTHIAZOL-2-YL)-4-OXO-3,4-DIHYDROPHTHALAZINE-6-SULFONAMIDE]	177 nM	> 30000 nM
COc1cc(-c2cccc(F)c2)c(Cl)cc1-c1ncnc2cc(S(=O)(=O)Nc3ncns3)ccc12 [Example 521, 4-(2-CHLORO-3′-FLUORO-5-METHOXY-[1,1′-BIPHENYL]-4-YL)-N-(1,2,4-THIADIAZOL-5-YL)QUINAZOLINE-7-SULFONAMIDE]	19 nM	4750 nM
COc1cc(-c2cccc(F)c2)c(Cl)cc1-c1nccc2cc(S(=O)(=O)Nc3ccncn3)ccc12 [Example 333, 1-(2-CHLORO-3′-FLUORO-5-METHOXY-[1,1′-BIPHENYL]-4-YL)-N-(PYRIMIDIN-4-YL)ISOQUINOLINE-6-SULFONAMIDE]	75 nM	20300 nM
COc1cc(-c2cc(F)cc(Cl)c2)ccc1-c1nccc2cc(S(=O)(=O)Nc3ccncn3)ccc12 [Example 491, 1-(3′-CHLORO-5′-FLUORO-3-METHOXY-[1,1′-BIPHENYL]-4-YL)-N-(PYRIMIDIN-4-YL)ISOQUINOLINE-6-SULFONAMIDE]	101 nM	> 30000 nM
COc1cc(-c2cc(F)cc(F)c2)c(C#N)cc1-c1nccc2cc(S(=O)(=O)Nc3nncs3)ccc12 [Example 338, 1-(2-CYANO-3′,5′-DIFLUORO-5-METHOXY-[1,1′-BIPHENYL]-4-YL)-N-(1,3,4-THIADIAZOL-2-YL)ISOQUINOLINE-6-SULFONAMIDE]	29 nM	> 30000 nM
COc1cc(C(F)F)c(F)cc1-c1nc(C)nc2cc(S(=O)(=O)Nc3nccs3)ccc12 [Example 514, 4-(4-(difluoromethyl)-5-fluoro-2-methoxyphenyl)-2-methyl-N-(thiazol-2-yl)quinazoline-7-sulfonamide]	383 nM	> 30000 nM
COc1cc(Cl)ccc1-c1ccc(-c2nccc3cc(S(=O)(=O)Nc4ccncn4)ccc23)c(OC)c1 [Example 460, 1-(4′-CHLORO-2′,3-DIMETHOXY-[1,1′-BIPHENYL]-4-YL)-N-(PYRIMIDIN-4-YL)ISOQUINOLINE-6-SULFONAMIDE]	106 nM	> 30000 nM
COc1cc(-c2ccc(C)c(Cl)c2)ccc1-c1nccc2cc(S(=O)(=O)Nc3ccncn3)ccc12 [Example 494, 1-(3′-CHLORO-3-METHOXY-4′-METHYL-[1,1′-BIPHENYL]-4-YL)-N-(PYRIMIDIN-4-YL)ISOQUINOLINE-6-SULFONAMIDE]	78 nM	> 30000 nM
